Experiments:
[1] = logP by reversed-phase HPLC (EEC Directive 79/831 Annex V.A8); format: physicochemical; settings: * LC-MS, acidic range, pH 2.7, 0.1% aqueous formic acid / acetonitrile
Excerpt: [table] The calibration is effected with unbranched alkan-2-ones (having 3 to 16 carbon atoms) with known log P values (log P values determined on the basis of the retention times by linear interpolation between two successive alkanones).

[2] = system: Boophilus microplus females of the SP-resistant Parkhurst strain; assay: Boophilus microplus (dip); format: in vivo; settings: 100 ppm, after 7 days, laying of fertile eggs
Method: Boophilus microplus (dip)
Test animals: adult engorged Boophilus microplus females of the SP-resistant Parkhurst strain
Solvent: Dimethyl Sulphoxide
10 mg of active ingredient are dissolved in 0.5 ml of dimethyl sulphoxide. For the purpose of preparing a suitable formulation, the active ingredient solution is diluted with water to the concentration desired in each case. This active ingredient preparation is pipetted into tubes. 8-10 ticks are transferred into a further tube with holes. The tube is immersed into the active ingredient formulation, and all ticks are completely wetted. After the liquid has run out, the ticks are transferred onto filter discs in plastic dishes and stored in a climate-controlled room. The activity is assessed after 7 days by laying of fertile eggs. Eggs whose fertility is not outwardly visible are stored in glass tubes in a climate-controlled cabinet until the larvae hatch. Efficacy of 100% means that none of the ticks has laid any fertile eggs.

[3] = system: Boophilus microplus; assay: Boophilus microplus test (BOOPMI injection); format: in vivo; settings: 20 μg/animal, injection into abdomen, after 7 days, laying of fertile eggs
Method: Boophilus microplus Test (BOOPMI Injection) Solvent: Dimethyl Sulphoxide To prepare an appropriate active ingredient formulation, 10 mg of active ingredient are mixed with 0.5 ml of solvent and the concentrate is diluted with solvent to the desired concentration. The active ingredient solution is injected into the abdomen (Boophilus microplus), and the animals are transferred into dishes and stored in a climate-controlled room. The efficacy is assessed by laying of fertile eggs. After 7 days, the efficacy in % is determined. 100% means that none of the ticks has laid any fertile eggs.

[4] = system: Ctenocephalides felis; assay: Ctenocephalides felis test (CTECFE); format: in vivo; settings: 100 ppm in citrated cow's blood, after 2 days
Method: Ctenocephalides felis Test ([…]) Solvent: 1 Part by Weight of Dimethyl Sulphoxide For the purpose of preparing an appropriate active ingredient formulation, 10 mg of active ingredient are mixed with 0.5 ml of dimethyl sulphoxide. A portion of the concentrate is diluted with citrated cow's blood and the desired concentration is established. About 20 unfed adult fleas (Ctenocephalides felis) are introduced into a chamber closed at the top and bottom with gauze. A metal cylinder, the bottom of which is closed with Parafilm, is placed onto the chamber. The cylinder contains the blood/active ingredient preparation, which can be imbibed by the fleas through the Parafilm membrane. After 2 days, the kill in % is determined. 100% means that all fleas have been killed; 0% means that none of the fleas have been killed.

[5] = system: Lucilia cuprina larvae; assay: Lucilia cuprina test (LUCICU); format: in vivo; settings: 100 ppm, treated horse meat, after 2 days
Method: (§1) Lucilia cuprina Test (LUCICU) Solvent: Dimethyl Sulphoxide To prepare an appropriate active ingredient formulation, 10 mg of active ingredient are mixed with 0.5 ml of dimethyl sulphoxide and the concentrate is diluted with water to the desired concentration. Vessels containing horse meat treated with the active ingredient preparation of the desired concentration are populated with about 20 Lucilia cuprina larvae. After 2 days, the kill in % is determined. 100% means that all of the larvae have been killed; 0% means that none of the larvae have been killed.

[6] = system: Phaedon cochleariae; assay: Phaedon test (PHAECO spray treatment); format: in vivo; settings: 500 g/ha, Chinese cabbage discs, after 7 days
Method: Phaedon Test ([…] Spray Treatment) Solvent: 78.0 parts by weight of acetone • • 1.5 parts by weight of dimethylformamide Emulsifier: 0.5 part by weight of alkylaryl polyglycol ether To prepare an appropriate active ingredient preparation, 1 part by weight of active ingredient is mixed with the stated amounts of solvent and emulsifier, and the concentrate is diluted with emulsifier-containing water to the desired concentration. Discs of Chinese cabbage (Brassica pekinensis) are sprayed with an active ingredient preparation of the desired concentration and, after drying, populated with larvae of the mustard beetle (Phaedon cochleariae). After 7 days, the efficacy in % is determined. 100% means that all beetle larvae have been killed; 0% means that none of the beetle larvae have been killed.

[7] = system: Spodoptera frugiperda; assay: Spodoptera frugiperda test (SPODFR spray treatment); format: in vivo; settings: 500 g/ha, maize leaf discs, after 7 days
Method: Spodoptera frugiperda Test (SPODFR Spray Treatment) Solvent: 78.0 parts by weight of acetone • • 1.5 parts by weight of dimethylformamide Emulsifier: 0.5 part by weight of alkylaryl polyglycol ether To prepare an appropriate active ingredient preparation, 1 part by weight of active ingredient is mixed with the stated amounts of solvent and emulsifier, and the concentrate is diluted with emulsifier-containing water to the desired concentration. Discs of maize leaves (Zea mays) are sprayed with an active ingredient preparation of the desired concentration and, after drying, populated with caterpillars of the armyworm (Spodoptera frugiperda). After 7 days, the efficacy in % is determined. 100% means that all caterpillars have been killed; 0% means that none of the caterpillars have been killed.

[8] = system: Tetranychus urticae; assay: Tetranychus test, OP-resistant (TETRUR spray treatment); format: in vivo; settings: bean leaf discs, after 6 days
Method: Tetranychus Test, OP-resistant (TETRUR Spray Treatment)
Solvent: 78.0 parts by weight of acetone • • 1.5 parts by weight of dimethylformamide
Emulsifier: 0.5 part by weight of alkylaryl polyglycol ether
To prepare an appropriate active ingredient preparation, 1 part by weight of active ingredient is mixed with the stated amounts of solvent and emulsifier, and the concentrate is diluted with emulsifier-containing water to the desired concentration. Discs of bean leaves (Phaseolus vulgaris) infested by all stages of the red spider mite (Tetranychus urticae) are sprayed with an active ingredient preparation of the desired concentration. After 6 days, the efficacy in % is determined. 100% means that all spider mites have been killed; 0% means that none of the spider mites have been killed.

[9] = system: Musca domestica; assay: Musca domestica test; format: in vivo; settings: after 2 days
Method: as §1, with “Musca domestica” for “Lucilia cuprina”, “Test” for “Test (LUCICU)”, “a sponge” for “horse meat”, “adult Musca domestica.” for “about 20 Lucilia cuprina larvae.”, “flies” for “larvae”

[10] = system: Myzus persicae; assay: Myzus test (MYZUPE spray treatment); format: in vivo; settings: 500 g/ha, Chinese cabbage discs, after 6 days
Method: Myzus test (MYZUPE Spray Treatment) Solvent: 78 parts by weight of acetone • • 1.5 parts by weight of dimethylformamide Emulsifier: 0.5 part by weight of alkylaryl polyglycol ether To prepare an appropriate active ingredient preparation, 1 part by weight of active ingredient is mixed with the stated amounts of solvent and emulsifier, and the concentrate is diluted with emulsifier-containing water to the desired concentration. Discs of Chinese cabbage (Brassica pekinensis) infested by all stages of the green peach aphid (Myzus persicae) are sprayed with an active ingredient preparation of the desired concentration. After 6 days, the efficacy in % is determined. 100% means that all of the aphids have been destroyed; 0% means that none of the aphids have been destroyed.

| chromatographic logP ([1]; reversed-phase HPLC column, read-out: log P) | log P [1] | Structure (SMILES) | efficacy [2] [%] | efficacy [3] [%] | efficacy (kill) [4] [%] | efficacy (kill) [5] [%] | efficacy [6] [%] | efficacy [7] [%] | efficacy ([8]; 500 g/ha) [%] | efficacy (kill) ([9]; 100 ppm) [%] | efficacy [10] [%] | efficacy (kill) ([9]; 20 ppm) [%] | efficacy ([8]; 100 g/ha) [%] |
| --- | --- | --- | --- | --- | --- | --- | --- | --- | --- | --- | --- | --- | --- |
|  | 3.02* | COc1nccnc1-n1nc(C(F)(F)F)c(-c2cc(Cl)c3c(c2)OCCO3)c1N [Ex. 133] | 95 | 100 | 100 | 100 | 100 | 100 |  |  |  | 80 | 90 |
|  | 3.09* | COc1nccnc1-n1nc(C(F)(F)F)c(-c2cc(Br)c3c(c2)OCCO3)c1N [Ex. 132] | 100 | 100 | 100 | 100 | 100 | 100 | 80 | 80 |  |  |  |
|  | 4.58* | COc1nccnc1-n1nc(C(F)(F)C(F)(F)F)c(-c2cc(Cl)cc(C(F)(F)F)c2)c1N [Ex. 15] | 100 | 100 | 95 | 100 | 100 | 100 | 100 | 95 | 100 |  |  |

The next lines start with the compound.

| Structure (SMILES) | chromatographic logP ([1]; reversed-phase HPLC column, read-out: log P) | log P [1] | efficacy [2] [%] | efficacy [3] [%] | efficacy (kill) [4] [%] | efficacy (kill) [5] [%] | efficacy [6] [%] | efficacy [7] [%] | efficacy ([8]; 500 g/ha) [%] | efficacy (kill) ([9]; 100 ppm) [%] | efficacy [10] [%] | efficacy (kill) ([9]; 20 ppm) [%] | efficacy ([8]; 100 g/ha) [%] |
| --- | --- | --- | --- | --- | --- | --- | --- | --- | --- | --- | --- | --- | --- |
| COc1cc(-c2c(C(F)(F)F)nn(-c3nccnc3OC)c2N)cc(C(F)(F)F)c1 [compound 26, 1-(3-methoxypyrazin-2-yl)-4-[3-methoxy-5-(trifluoromethyl)phenyl]-3-(trifluoromethyl)-1H-pyrazol-5-amine] | 3.63 |  | 90 | 100 | 95 | 100 | 100 | 83 | 100 |  |  |  |  |
| COc1nccnc1-n1nc(C(F)(F)C(F)(F)OC)c(-c2cc(Cl)cc(C(F)(F)F)c2)c1N [Ex. 47] |  | 3.98* | 100 | 100 | 100 | 100 | 100 | 100 | 100 | 80 | 80 |  |  |
| COc1nccnc1-n1nc(C(F)(F)Cl)c(-c2cc(Cl)cc(C(F)(F)F)c2)c1N [Ex. 17] |  | 4.24* | 100 | 100 | 100 | 100 | 100 | 100 | 100 | 100 | 100 |  |  |
| COc1nccnc1-n1nc(C(F)(F)F)c(-c2ccc(Cl)c(C(F)(F)F)c2)c1N [Ex. 18] |  | 3.94* | 100 | 100 |  | 100 | 100 | 83 | 100 |  | 90 |  |  |
| COc1nccnc1-n1nc(C(C)(F)F)c(-c2ccc(Cl)c(C(F)(F)F)c2)c1N [Ex. 20] |  | 3.74* | 100 | 100 |  | 100 | 100 | 100 | 100 |  | 100 |  |  |
| C=Cc1nn(-c2nccnc2OC)c(N)c1-c1cc(Cl)cc(Cl)c1 [Ex. 8] |  | 3.51* | 90 | 100 |  | 100 |  |  |  |  | 100 |  |  |
